Consider one compound from patent publication US20110071094A1, “(D)-ALLOSE INDUCING PROGRAMMED CELL DEATH IN HORMONE REFRACTORY PROSTATE CANCER LINES” (INDUSTRY-ACADEMIC COOPERATION FOUDATION, GYEONGSANG …, priority 2008, published 2011).

The experiment relates to Bax. Put plainly: Western blot analysis of Bax protein in DU145. The note with it: DU145, 40 mM, 72 h. The experiment is classed as cell-based, human. The method, then: After 0, 20 and 40 mM of D-allose treatments for 72 h, DU145 cell line (1×10^6 cells in triplicate culture plates) was harvested into cell lysis buffer (Cell Signaling, Danvers, Mass., USA) supplemented with 1 mM PMSF. The cells were then sonicated, centrifuged and protein concentration was measured by Bradford assay with the Bio-Rad protein assay solution using bovine serum albumin (BSA) as standard. Proteins (30 μg) were separated on a 12.5% SDS-PAGE under reducing conditions and transferred onto a PVDF membrane (Santa Cruz Biotechnology, Santa Cruz, Calif., USA). Prestained protein marker, broad range: 6-175 kDa (New England Biolabs Inc., Ipswich, Mass., USA) run in parallel for detection of the molecular weights of the proteins. Membrane was blocked with 5% (w/v) skimmed milk in order to reduce non-specific binding and immunoblotting was performed using rabbit derived anti-Bcl-2, anti-Bax, anti-Caspase 3 and anti-PARP antibodies (1:500; Santa Cruz Biotechnology, Santa Cruz, Calif., USA). […] Membrane was probed with a goat derived horseradish peroxidase-conjugated anti-rabbit IgG (1:1000; Santa Cruz Biotechnology, Santa Cruz, Calif., USA), and proteins were detected by the enhanced chemiluminescence (ECL) detection system according to the vendor's protocol (Amersham Biosciences, Piscataway, N.J., USA) followed by X-ray exposure. […]
(In general: Immunoblotting shows a protein as a band on a membrane.)

As to `O=C[C@H](O)[C@H](O)[C@H](O)[C@H](O)CO` [D-allose], the Bax protein expression result is “remarkably increased”.
